# In patent US8445516B2, “Pharmaceutical composition for promoting angiogenesis” (Otsuka Pharmaceutical Co., Ltd., priority 2004, dated 2013):
# Experiments:
# Assay type in all cases: cell-based
# [1] = system: thoracic aortic ring specimens of rat; assay: Rat aortic ring culture: angiogenesis promoting action (newly grown micro-vessels); conditions: for Number of micro-vessels: 7 days culture, mean ± SE, control 20 ± 2
# Procedure: The test was conducted according to a report by Nicosia R. F. et al. (In Vitro Cell Dev Biol 26, 119-128, 1990). Briefly, thoracic aorta was removed from rat under ether anesthesia, and aortic rings were obtained by cross-sectioning at 1 mm intervals. The aortic rings were embedded into type I collagen gel (Koken Co.). Further, MCDB131 medium (Gibco BRL Co.) containing the Test Compound A was added to the upper layer, and the medium was exchanged every three days. After 7 days from the culture, micro-vessels newly grown from a cutting section of the aortic ring specimens were stained with alkaline phosphatase, then numbers of micro-vessels observed based on digital camera image were counted by using Scion Image (Scion Corp.). The statistical analysis was performed as follows: Data were analyzed using Dunnett's test with randamized block design. The difference between test compound groups and non-treated group were considered statistical significant at P<0.05.
# [2] = system: human aortic endothelial cells; assay: Vascular endothelial cell migration (48 well micro chemotaxis chamber); conditions: for Number of Migration cell: 4 hours, mean ± SE, control 34 ± 8
# Procedure: The test was conducted according to a report by Witzenbichler, B. et al. (J. Biol. Chem., 273, 18514-18521, 1998). Briefly, human aortic endothelial cells (Cambrex Corp.) were cultured in MCDB131 medium to confluent state. Cell migration was tested by using a 48 well micro chemotaxis chamber (Neuro Probe Inc.). The Test Compound A was added into the lower layer of a well, while cells, 1×10^4 cells per well, were added into the upper layer, and those were cultured for 4 hours. Cells were immobilized with methanol and cells in the upper layer of a filter were removed, and cells migrated on the filter were stained with Diff Quick (International Reagents Corp.), then numbers of migrated endothelial cells observed from digital camera image were counted by using Scion Image (Scion Corp.). The statistical analysis was performed as follows: Data were analyzed using Williams' test after linear regression analysis. The difference between test compound groups and non-treated group were considered statistical significant at P<0.05.
# [3] = system: human aortic endothelial cells; assay: Luminalization (tube formation) of vascular endothelial cells in gel; conditions: for Length of formed tube (Pixel): third day, mean ± SE, control 13.3 ± 0.4
# Procedure: The test was conducted according to a report by Yasunaga, C. et al. (Lab Invest, 1989; 61: 698-704). Briefly, human aortic endothelial cells (Cambrex Corp.) were cultured in MCDB131 medium to confluent state. Cells prepared with medium containing the Test Compound A, 5×10^4 cells/well, were added on cell matrix gel (Nitta Gelatin Co.) and cultured for 4 hours to adhere cells. After medium removal, gel was added to embed cells, and medium containing the drug was added on the upper layer, then length of the formed tube was measured on the third day based on digital camera image by using Scion Image (Scion Corp.). The statistical analysis was performed as follows: Data were analyzed using Williams' test after linear regression analysis. The difference between test compound groups and non-treated group were considered statistical significant at P<0.05.
# [4] = dose dependent manner, compared with non-treated control group
smiles,measurement,setting,value
"CCC(=O)Nc1c(C)cc(C(=O)N2CCC(N(C)CCc3ccccc3)CC2)cc1C [Test Compound A, 4-[N-methyl-N-(2-phenylethyl)amino]-1-(3,5-dimethyl-4-propionylaminobenzoyl)piperidine]",Number of micro-vessels,[1]; Concentration 6 (−Log M),35 ± 4
same,Number of micro-vessels,[1]; Concentration 7 (−Log M),33 ± 3
same,Number of micro-vessels,[1]; Concentration 8 (−Log M),32 ± 4
same,Number of micro-vessels,[1]; Concentration 9 (−Log M),27 ± 2
same,Number of micro-vessels,[1]; Concentration 10 (−Log M),30 ± 3
same,Number of micro-vessels,[1]; Concentration 11 (−Log M),22 ± 3
same,Number of micro-vessels,[1]; Concentration 12 (−Log M),24 ± 3
same,Effect on numbers of newly grown micro-vessels (in words),[1]; [4],significantly increased numbers of newly grown micro-vessels
same,Number of Migration cell,[2]; Concentration 8 (−Log M),64 ± 7
same,Number of Migration cell,[2]; Concentration 9 (−Log M),64 ± 8
same,Number of Migration cell,[2]; Concentration 10 (−Log M),49 ± 6
same,Number of Migration cell,[2]; Concentration 11 (−Log M),42 ± 6
same,Number of Migration cell,[2]; Concentration 12 (−Log M),41 ± 8
same,Effect on numbers of migration cells (in words),[2]; [4],significantly increased numbers of migration cells
same,Length of formed tube (Pixel),[3]; Concentration 6 (−Log M),48.4 ± 5.3 Pixel
same,Length of formed tube (Pixel),[3]; Concentration 7 (−Log M),32.2 ± 3.8 Pixel
same,Length of formed tube (Pixel),[3]; Concentration 8 (−Log M),15.7 ± 0.9 Pixel
same,Effect on length of formed tube (in words),[3]; [4],significantly increased length of formed tube
